In patent publication US12559529B2, “NPY2 receptor agonists” (Boehringer Ingelheim International GmbH, priority 2019, dated 2026):

Assays:
[1] = biological target: T1, Human Neuropeptide Y2 Receptor (Homo sapiens, UniProt P49146); assay: Radioligand binding competition assay (RLB); conditions: Table 3; human 125I-PYY (1-36) 0.02 nM, Y2 receptor membranes; read-out: Ki
T1 construct: purchased CHEMICON HTS066M
T1 sequence (P49146 1-381): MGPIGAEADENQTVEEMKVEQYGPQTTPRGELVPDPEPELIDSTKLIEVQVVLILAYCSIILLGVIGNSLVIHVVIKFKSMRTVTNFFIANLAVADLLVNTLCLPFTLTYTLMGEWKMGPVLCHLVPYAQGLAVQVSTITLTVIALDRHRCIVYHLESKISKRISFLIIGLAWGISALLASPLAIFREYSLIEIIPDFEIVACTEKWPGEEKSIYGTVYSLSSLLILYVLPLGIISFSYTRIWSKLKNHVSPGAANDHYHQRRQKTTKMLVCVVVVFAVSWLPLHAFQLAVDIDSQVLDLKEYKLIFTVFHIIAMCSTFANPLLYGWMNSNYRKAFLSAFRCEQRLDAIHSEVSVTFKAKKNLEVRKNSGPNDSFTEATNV
Procedure, shortened: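 Membranes (0.5 μg/well) and test peptides, serially diluted from 1 mM DMSO stocks, were incubated 2 hours at room temperature in HEPES buffer pH 7.4 with Mg, Ca and ovalbumin.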

normal NMRI mice = assay: Effect on acute food intake in normal NMRI mice; assay type: in vivo; conditions: male NMRI mice, 10 nmol/kg subcutaneously once
Procedure, shortened: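 Male NMRI mice acclimatized in an HM-2 real-time food intake monitoring system, fasted 6 h before dark phase. Single subcutaneous dose of 10 nmol/kg peptide given 1 h before dark; n=7-8. Food intake expressed as % of vehicle group (50 mM phosphate pH7, 5% Mannitol).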

| Ki [1] [nM] | SMILES | Acute Food Intake 24 h [% vehicle] (normal NMRI mice) |
| --- | --- | --- |
| 1.6 | CC(C)CC(=O)N[C@@H](C)C(=O)N1CCC[C@H]1C(=O)N[C@@H](CCC(=O)O)C(=O)N[C@@H](CCCCNC(=O)COCCOCCNC(=O)COCCOCCNC(=O)CC[C@H](NC(=O)CCCCCCCCCCCCCCCCC(=O)O)C(=O)O)C(=O)N1CCC[C@H]1C(=O)N[C@@H](CCC(=O)O)C(=O)N[C@@H](CCC(=O)O)C(=O)N[C@@H](CC(=O)O)C(=O)N[C@@H](C)C(=O)N[C@@H](CO)C(=O)N1CCC[C@H]1C(=O)N[C@@H](CCC(=O)O)C(=O)N[C@@H](CCC(=O)O)C(=O)N[C@@H](CC(C)C)C(=O)N[C@@H](CCC(N)=O)C(=O)N[C@@H](CCCNC(=N)N)C(=O)N[C@@H](Cc1ccc(O)cc1)C(=O)N[C@@H](CCC(=O)O)C(=O)N[C@H](C(=O)N[C@@H](CO)C(=O)N[C@@H](CC(C)C)C(=O)N[C@@H](CCCNC(=N)N)C(=O)N[C@@H](Cc1c[nH]cn1)C(=O)N[C@@H](Cc1ccc(O)cc1)C(=O)N[C@@H](Cc1ccc(O)cc1)C(=O)N[C@@H](CC(N)=O)C(=O)N[C@@H](Cc1c[nH]c2ccccc12)C(=O)N[C@@H](CC(C)C)C(=O)N[C@H](C(=O)N[C@@H](CCCNC(=N)N)C(=O)N[C@@H](CCC(N)=O)C(=O)N[C@@H](CCCNC(=N)N)C(=O)N[C@@H](Cc1ccc(O)cc1)C(N)=O)[C@@H](C)O)C(C)C [Compound 90, N{alpha-4}-(3-methylbutanoyl)-N{epsilon-7}-[2-(2-{2-[2-(2-{2-[(4S)-4-carboxy-4-(17-carboxyheptadecanamido)butanamido]ethoxy}ethoxy)acetamido]ethoxy}ethoxy)acetamido]-[4A,7K,9E,18Q,21E,22V,28Y,30W,31L]hPYY (4-36)] | 70 |
| 3.29 | CC(C)CC(=O)N[C@@H](C)C(=O)N1CCC[C@H]1C(=O)N[C@@H](CCC(=O)O)C(=O)N[C@@H](CCCCNC(=O)COCCOCCNC(=O)COCCOCCNC(=O)CC[C@H](NC(=O)CCCCCCCCCCCCCCCCC(=O)O)C(=O)O)C(=O)N1CCC[C@H]1C(=O)N[C@@H](CCC(=O)O)C(=O)N[C@@H](CCC(=O)O)C(=O)N[C@@H](CC(=O)O)C(=O)N[C@@H](C)C(=O)N[C@H](C(=O)N1CCC[C@H]1C(=O)N[C@@H](CCC(=O)O)C(=O)N[C@@H](CCC(=O)O)C(=O)N[C@@H](CC(C)C)C(=O)N[C@@H](CCC(N)=O)C(=O)N[C@@H](CCCNC(=N)N)C(=O)N[C@@H](Cc1ccc(O)cc1)C(=O)N[C@@H](Cc1ccc(O)cc1)C(=O)N[C@H](C(=O)N[C@@H](CCC(=O)O)C(=O)N[C@@H](CC(C)C)C(=O)N[C@@H](CCCNC(=N)N)C(=O)N[C@@H](Cc1c[nH]cn1)C(=O)N[C@@H](Cc1ccc(O)cc1)C(=O)N[C@@H](Cc1ccc(O)cc1)C(=O)N[C@@H](CC(N)=O)C(=O)N[C@@H](Cc1c[nH]c2ccccc12)C(=O)N[C@@H](CC(C)C)C(=O)N[C@H](C(=O)N[C@@H](CCCNC(=N)N)C(=O)N[C@@H](CCC(N)=O)C(=O)N[C@@H](CCCNC(=N)N)C(=O)N[C@@H](Cc1ccc(O)cc1)C(N)=O)[C@@H](C)O)C(C)C)[C@@H](C)O [Compound 101, N{alpha-4}-(3-methylbutanoyl)-N{epsilon-7}-[2-(2-{2-[2-(2-{2-[(4S)-4-carboxy-4-(17-carboxyheptadecanamido)butanamido]ethoxy}ethoxy)acetamido]ethoxy}ethoxy)acetamido]-[4A,7K,9E,13T,18Q,22V,23E,28Y,30W,31L]hPYY (4-36)] | 63 |
| 0.95 | CC(C)CC(=O)N[C@@H](C)C(=O)N1CCC[C@H]1C(=O)N[C@@H](C)C(=O)N[C@@H](CCCCNC(=O)COCCOCCNC(=O)COCCOCCNC(=O)CC[C@H](NC(=O)CCCCCCCCCCCCCCCCC(=O)O)C(=O)O)C(=O)N1CCC[C@H]1C(=O)N[C@@H](CCC(=O)O)C(=O)N[C@@H](CCC(=O)O)C(=O)N[C@@H](CC(=O)O)C(=O)N[C@@H](C)C(=O)N[C@@H](CO)C(=O)N[C@@H](CCC(=O)O)C(=O)N[C@@H](CCC(=O)O)C(=O)N[C@@H](CCC(=O)O)C(=O)N[C@@H](CC(C)C)C(=O)N[C@@H](CCC(N)=O)C(=O)N[C@@H](CCCNC(=N)N)C(=O)N[C@@H](Cc1ccc(O)cc1)C(=O)N[C@@H](Cc1ccc(O)cc1)C(=O)N[C@H](C(=O)N[C@@H](CO)C(=O)N[C@@H](CC(C)C)C(=O)N[C@@H](CCCNC(=N)N)C(=O)N[C@@H](Cc1c[nH]cn1)C(=O)N[C@@H](Cc1ccc(O)cc1)C(=O)N[C@@H](Cc1ccc(O)cc1)C(=O)N[C@@H](CC(N)=O)C(=O)N[C@@H](Cc1c[nH]c2ccccc12)C(=O)N[C@@H](CC(C)C)C(=O)N[C@H](C(=O)N[C@@H](CCCNC(=N)N)C(=O)N[C@@H](CCC(N)=O)C(=O)N[C@@H](CCCNC(=N)N)C(=O)N[C@@H](Cc1ccc(O)cc1)C(N)=O)[C@@H](C)O)C(C)C [Compound 103, N{alpha-4}-(3-methylbutanoyl)-N{epsilon-7}-[2-(2-{2-[2-(2-{2-[(4S)-4-carboxy-4-(17-carboxyheptadecanamido)butanamido]ethoxy}ethoxy)acetamido]ethoxy}ethoxy)acetamido]-[4A,6A,7K,9E,14E,18Q,22V,28Y,30W,31L]hPYY (4-36)] | 67 |
| 0.99 | CC(C)CC(=O)N[C@@H](C)C(=O)N1CCC[C@H]1C(=O)N[C@@H](CCC(=O)O)C(=O)N[C@@H](CCCCNC(=O)COCCOCCNC(=O)COCCOCCNC(=O)CC[C@H](NC(=O)CCCCCCCCCCCCCCCCC(=O)O)C(=O)O)C(=O)N1CCC[C@H]1C(=O)N[C@@H](CCC(=O)O)C(=O)N[C@@H](CCC(=O)O)C(=O)N[C@@H](CC(=O)O)C(=O)N[C@@H](C)C(=O)N[C@@H](CO)C(=O)N1CCC[C@H]1C(=O)N[C@@H](CCC(=O)O)C(=O)N[C@@H](CCC(=O)O)C(=O)N[C@@H](CC(C)C)C(=O)N[C@@H](CCC(N)=O)C(=O)N[C@@H](CCCNC(=N)N)C(=O)N[C@@H](Cc1ccc(O)cc1)C(=O)N[C@@H](Cc1ccc(O)cc1)C(=O)N[C@H](C(=O)N[C@@H](CCC(=O)O)C(=O)N[C@@H](CC(C)C)C(=O)N[C@@H](CCCNC(=N)N)C(=O)N[C@@H](Cc1c[nH]cn1)C(=O)N[C@@H](Cc1ccc(O)cc1)C(=O)N[C@@H](Cc1ccc(O)cc1)C(=O)N[C@@H](CC(N)=O)C(=O)N[C@@H](Cc1c[nH]c2ccccc12)C(=O)N[C@@H](CC(C)C)C(=O)N[C@H](C(=O)N[C@@H](CCCNC(=N)N)C(=O)N[C@@H](CCC(N)=O)C(=O)N[C@@H](CCCNC(=N)N)C(=O)N[C@@H](Cc1ccc(O)cc1)C(N)=O)[C@@H](C)O)C(C)C [Compound 108, N{alpha-4}-(3-methylbutanoyl)-N{epsilon-7}-[2-(2-{2-[2-(2-{2-[(4S)-4-carboxy-4-(17-carboxyheptadecanamido)butanamido]ethoxy}ethoxy)acetamido]ethoxy}ethoxy)acetamido]-[4A,7K,9E,18Q,22V,23E,28Y,30W,31L]hPYY (4-36)] | 47 |
| 0.77 | CC[C@H](C)[C@H](NC(=O)[C@H](CCC(=O)O)NC(=O)[C@H](CCC(=O)O)NC(=O)[C@@H]1CCCN1C(=O)[C@H](CCC(=O)O)NC(=O)[C@H](C)NC(=O)[C@H](CC(=O)O)NC(=O)[C@H](CCC(=O)O)NC(=O)[C@H](CCC(=O)O)NC(=O)[C@@H]1CCCN1C(=O)[C@H](CCCCNC(=O)COCCOCCNC(=O)COCCOCCNC(=O)CC[C@H](NC(=O)CCCCCCCCCCCCCCCCC(=O)O)C(=O)O)NC(=O)[C@H](CCC(=O)O)NC(=O)[C@@H]1CCCN1C(=O)[C@H](C)NC(=O)CC(C)C)C(=O)N[C@@H](CCC(N)=O)C(=O)N[C@@H](CCCNC(=N)N)C(=O)N[C@@H](Cc1ccc(O)cc1)C(=O)N[C@@H](Cc1ccc(O)cc1)C(=O)N[C@H](C(=O)N[C@@H](CO)C(=O)N[C@@H](CC(C)C)C(=O)N[C@@H](CCCNC(=N)N)C(=O)N[C@@H](Cc1c[nH]cn1)C(=O)N[C@@H](Cc1ccc(O)cc1)C(=O)N[C@@H](Cc1ccc(O)cc1)C(=O)N[C@@H](CC(N)=O)C(=O)N[C@@H](Cc1c[nH]c2ccccc12)C(=O)N[C@@H](CC(C)C)C(=O)N[C@H](C(=O)N[C@@H](CCCNC(=N)N)C(=O)N[C@@H](CCC(N)=O)C(=O)N[C@@H](CCCNC(=N)N)C(=O)N[C@@H](Cc1ccc(O)cc1)C(N)=O)[C@@H](C)O)C(C)C [Compound 110, N{alpha-4}-(3-methylbutanoyl)-N{epsilon-7}-[2-(2-{2-[2-(2-{2-[(4S)-4-carboxy-4-(17-carboxyheptadecanamido)butanamido]ethoxy}ethoxy)acetamido]ethoxy}ethoxy)acetamido]-[4A,7K,9E,13E,17I,18Q,22V,28Y,30W,31L]hPYY (4-36)] | 67 |
